Consider seven compounds from publication PMC8156206, “Novel N,N′-Disubstituted Selenoureas as Potential Antioxidant and Cytotoxic Agents” (Antioxidants, 2021).

The test system of data set [1] is MCF-7 cells (breast adenocarcinoma). The data set is described as follows: MTT cell viability assay, MCF-7. It is filed as cell-based, human. Conditions: for IC50 / viability at 10 µM / viability at 50 µM: Homo sapiens, MCF7, 48 h, MTT; for IC50: mean ± SD, read-out: IC50 MCF-7 (breast); for viability at 10 µM: MCF-7, 10 µM; for viability at 10 µM / viability at 50 µM: read-out: cell viability, percentage of live cells; for viability at 50 µM: MCF-7, 50 µM. As for the experimental part: (§1) Cell lines were purchased from the American Type Culture Collection (ATCC). MCF-7, HTB-54, BEAS-2B and 184B5 cell lines were grown in RPMI 1640 medium (Gibco) supplemented with 10% fetal bovine serum (FBS; Gibco), 100 units/mL penicillin, and […] streptomycin (Gibco). HT-29 and HCT-116 cell lines was cultured in McCoy’s 5A (Gibco), 10% FBS, 100 units/mL penicillin, and 100 μg/mL streptomycin. Cells were maintained at 37 °C and 5% CO2. Culture medium was replaced every three days.
(§2) A cell viability assay of each compound was carried out using an MTT assay. Each selenourea was dissolved in dimethyl sulfoxide (DMSO) at a concentration of 0.01 M. Serial dilutions were prepared with non-supplemented culture medium. Cytotoxic activity of each selenourea was determined at two different concentrations (10 and 50 µM) in MCF-7, HTB-54, and HT-29 cells. In addition, selected compounds were tested at seven different concentrations (0.1, 1, 5, 10, 25, 50, 100 µM) on MCF-7, HT-29, HCT-116, HTB-54, 184B5, and BEAS-2B cells. The number of passages before defrosting the cells was 3, and they were kept under culture up to a maximum of 15.
(§3) Briefly, 1 × 10^4 cells/well were grown in 96-well plates for 24 h. Then, these cells were incubated with either DMSO (negative control) at 5 µM or a different concentration of each tested selenourea for 48 h. A volume of 20 µL of MTT was added 150 min before the termination point to measure cellular viability. After this time, culture medium was removed. The resultant formazan crystals were dissolved in 50 µL of DMSO, and absorbance was measured at 570 nm. Results are expressed as IC50, the half maximal inhibitory concentration. This value was calculated using GraphPad Prism 7 software by nonlinear curve fitting. Furthermore, the selectivity index (SI) was calculated as the ratio of the IC50 values determined for the non-malignant and the tumoral cells (IC50 (184B5)/IC50 (MCF-7) or (IC50 (BEAS-2B)/IC50 (HTB-54). Data were obtained from at least three independent experiments performed in triplicates.
(§4) The cytotoxic effects of synthesized compounds were evaluated against three human cancer cell lines: breast adenocarcinoma (MCF-7), lung adenocarcinoma (HTB-54), and colon carcinoma (HT-29), using a 3-[4,5-dimethylthiazol-2-yl]-2,5-diphenyltetrazolium bromide (MTT) assay. Firstly, the compounds were screened at two doses (50 and 10 µM) and after 48 h of treatment. The results are summarized in Figure 4 and are presented as percentages of growth inhibition related to control.
(Formazan colour is commonly taken as a measure of viable cells.)

Data set [2] relates to HTB-54 cells (lung adenocarcinoma). Description: MTT cell viability assay, HTB-54. Particulars: Homo sapiens, 48 h, MTT; for IC50: HTB-54, mean ± SD, read-out: IC50 HTB-54 (lung); for viability at 10 µM: HTB-54, 10 µM; for viability at 10 µM / viability at 50 µM: read-out: cell viability, percentage of live cells; for viability at 50 µM: HTB-54, 50 µM. It is filed as cell-based, human. As for the experimental part:
as §1, §2, §3, §4

Data set [3] relates to HT-29 cells (colon carcinoma). The data set is described as follows: MTT cell viability assay, HT-29. The class given is cell-based. Particulars: Homo sapiens, 48 h, MTT; for IC50: HT-29, mean ± SD, read-out: IC50 HT-29 (colon); for viability at 10 µM: HT-29, 10 µM; for viability at 10 µM / viability at 50 µM: read-out: cell viability, percentage of live cells; for viability at 50 µM: HT-29, 50 µM. As for the experimental part:
as §1, §2, §3, §4

The next data set deals with HCT-116 cells (colon). Description: MTT cell viability assay, HCT-116. It is filed as cell-based. Conditions: Homo sapiens, HCT-116; 48 h, MTT, mean ± SD; read-out: IC50 HCT-116 (colon). As for the experimental part:
as §1, §2, §3

Data set [4] can be described thus: DPPH radical scavenging assay. Particulars: for DPPH radical scavenging kinetics: 0.03 mg/mL, time-point 0 min. As for the experimental part:
(§5) From all the methods available for the prediction of the antioxidant properties, DPPH^● and ABTS^●+ assays were chosen according to their simplicity, accessibility, and effectiveness for a fast prediction of radical scavenging activities in vitro. The radical scavenging capacity of the novel selenoureas was determined by DPPH^● and ABTS^●^+ assays. Measurements were recorded on a BioTeck PowerWave XS spectrophotometer (BioTeck Instruments, Winooski (VT), USA) and the data were collected using KCJunior software (BioTeck Instruments, Winooski (VT), USA).
A DPPH assay was performed, as described by Svinyarov. Stock solutions of 1 mg/mL were initially prepared for each selenourea in methanol and this solution was used for the preparation of the different concentrations employed in the assay. Ascorbic acid (Asc) was used as positive control due to the literature reports that this derivative is a potent antioxidant and radical scavenger. A volume of 100 µL from a previously prepared stock solution (preserved in dark and daily prepared) of DPPH (100 µM) in methanol were added to 100 µL of the methanolic selenoureas solutions prepared previously, and the antioxidant activity these compounds was assessed by its ability to decolorize DPPH● radical (purple color in methanol) to DPPHH (colorless). Thus, radical scavenging activity was estimated by the decrease in the absorbance at 517 nm. Determinations were recorded at different time-points. All the measurements were carried out in triplicate. Results are expressed as the percentage of the radicals scavenged, calculated using the following formula:(1) % DPPH radical scavenging=Acontrol − Asample/Acontrol × 100 where Acontrol refers to the absorbance of the negative control and Asample refers to the absorbance of the tested compounds. Results are expressed as percentage of DPPH radical scavenging ± SD.
In order to determine the radical scavenging of these newly synthesized selenourea derivatives, the DPPH assay was firstly employed. Measurements were performed at four different concentrations ranging from 0.0003 to 0.03 mg/mL, and collected at time-points between 0 min and 120 min (Figures S81–S100). Results are presented as the percentage of inhibition for DPPH radical scavenging activity.
In general terms: The DPPH test is a chemical assay of radical scavenging.

The subject of data set [5] is 184B5 cells (breast non-malignant derived cell line). Description: MTT cell viability assay, 184B5. Conditions: Homo sapiens, 184B5; 48 h, MTT, mean ± SD; read-out: IC50 184B5 (breast, non-malignant). It is filed as cell-based. As for the experimental part: as §1, §2, §3
The nature of data set [6]: ABTS radical scavenging assay. Conditions: 0.003 mg/mL, 60 min. As for the experimental part: as §5
As well as DPPH, ABTS radical scavenging assay is a colorimetric method. ABTS (2,2′-azino-bis(3-ethylbenzothiazoline-6-sulfonic acid) was dissolved in deionized water at 1 mg/mL and oxidized to ABTS^●+ with potassium persulfate (2.45 mM final concentration). This oxidation process is not instantaneous, and the reaction mixture was kept in the dark overnight at room temperature. After ABTS^●+ radical was generated, the ABTS^●+ solution was diluted with 50% ethanol until an absorbance of 0.70 ± 0.02 at 734 nm for measurements was achieved. Stock solution of 1 mg/mL in absolute ethanol was prepared for each selenourea, and different dilutions were prepared to reach the final concentration, when 20 µL of this solution were added to 180 µL of the diluted ABTS^●+. The absorbance at 734 nm was recorded using 50% ethanol as blank. Trolox and Asc were used as positive controls. All determinations were carried out in triplicate. Same time intervals as in the DPPH assay were also measured. The ability to scavenge ABTS^●+ was calculated using the following formula:(2) % ABTS radical scavenging=Acontrol − Asample/Acontrol × 100 where Acontrol refers to the absorbance of the negative control and Asample refers to the absorbance of the tested compounds. The results are expressed as percentage of ABTS radical scavenging ± SD.
In order to confirm the antioxidant activity of the selenoureas, we performed an additional ABTS (2,2′-azino-bis(3-ethylbenzothiazoline-6-sulfonic acid) radical scavenging assay. Following the results obtained in the DPPH assay, this experiment was performed at 0.03 and 0.003 mg/mL. Measurements were recorded after 0′, 6′ and 60′ of incubation with ABTS. For comparison purposes, Trolox and ascorbic acid were used as references. The remarkable results are summarized in Figure 3.

In turn, `Clc1ccc(NC(=[Se])NCc2ccco2)cc1` [Compound 1d] yielded a melting point of 128 °C. Further, in data set [1], the half-inhibitory concentration (IC50) is more than 10 µM, the viability at 10 µM came out at 78.2% and the viability at 50 µM was 27.9%. Also, in data set [2], the IC50 is more than 10 µM, the viability at 10 µM was 52.2% and the viability at 50 µM was found to be 27.3%. For the same compound, in data set [3], the concentration for half-maximal inhibition (IC50) stood at 8.07 ± 3.77 µM, the viability at 10 µM was found to be 48.6% and the viability at 50 µM was 35%. In addition, the concentration for half-maximal inhibition (IC50) in the data set on HCT-116 cells (colon) amounted to 7.8 ± 0.56 µM.
With `[Se]=C(NCc1nccs1)Nc1ccccc1` [Compound 2a], the melting point amounted to 149 °C. For the same compound, the “DPPH radical scavenging kinetics” value in data set [4] is reported as “reaching the maximum activity at time-point 0′”. Also, in data set [1], the IC50 came to 9.16 ± 3.49 µM, the viability at 10 µM amounted to 41% and the viability at 50 µM was determined as 42.8%. For the same compound, the “SI (selectivity index) breast” value in data set [1] (IC50 (184B5)/IC50 (MCF-7)) turned out to be 1.20. In data set [2], the IC50 was more than 10 µM, the viability at 10 µM turned out to be 51.1% and the viability at 50 µM came out at 45.7%. Moreover, in data set [3], the IC50 was more than 10 µM, the viability at 10 µM is 79.7% and the viability at 50 µM stood at 47.3%. Besides, in data set [5], the IC50 was 11 ± 0.73 µM.
Consider `COc1ccc(NC(=[Se])NCc2nccs2)cc1` [Compound 2c], for which the melting point is 150 °C. Besides, in data set [4] (at lower concentrations), the “DPPH radical scavenging capacity compared with ascorbic acid” value was “greater radical scavenging capacity than ascorbic acid”. Also, the “ABTS radical scavenging activity” value in data set [6] was “above 90%”. Also, in data set [1], the viability at 10 µM was found to be 60% and the viability at 50 µM was determined as 33.1%. For the same compound, in data set [2], the viability at 10 µM is 58.5% and the viability at 50 µM is 30.3%. Moreover, in data set [3], the viability at 10 µM is 88.9% and the viability at 50 µM turned out to be 53.1%.
The compound `N#Cc1ccc(NC(=[Se])NCc2nccs2)cc1` [Compound 2e] gave a melting point of 152 °C. The “DPPH radical scavenging kinetics” value in data set [4] is “reaching the maximum activity at time-point 0′”. The “ABTS radical scavenging activity” value in data set [6] was “above 90%”. Also, in data set [1], the viability at 10 µM was found to be 62.3% and the viability at 50 µM was 43.6%. Further, in data set [2], the viability at 10 µM was 66.6% and the viability at 50 µM came out at 40.1%. In data set [3], the viability at 10 µM is 57.9% and the viability at 50 µM came to 59.2%.
For the compound `O=c1ccc2cc(NC(=[Se])Nc3ccccc3)ccc2o1` [Compound 3a], the melting point was determined as 169 °C. In addition, in data set [4], the “DPPH radical scavenging kinetics” value is reported as “reaching the maximum activity at time-point 0′”. Further, in data set [1], the half-maximal inhibitory concentration (IC50) is more than 10 µM, the viability at 10 µM stood at 53.5% and the viability at 50 µM was determined as 29.8%. In addition, in data set [2], the half-inhibitory concentration (IC50) is more than 10 µM, the viability at 10 µM turned out to be 66% and the viability at 50 µM worked out at 10.3%. For the same compound, in data set [3], the half-inhibitory concentration (IC50) is 6.49 ± 1.58 µM, the viability at 10 µM was 47.5% and the viability at 50 µM worked out at 30.2%. Besides, the IC50 with HCT-116 cells (colon) is 5.86 ± 0.52 µM.
Compound `N#Cc1ccc(NC(=[Se])Nc2ccc3oc(=O)ccc3c2)cc1` [Compound 3e] gave a melting point of 140 °C. Besides, in data set [4], the “DPPH radical scavenging kinetics” value is “reaching the maximum activity at time-point 0′”. For the same compound, in data set [6], the “ABTS radical scavenging activity compared with Trolox” value is “significant lower radical scavenging activity than Trolox”. In data set [1], the viability at 10 µM was found to be 59.7% and the viability at 50 µM was 31.1%. Besides, in data set [2], the viability at 10 µM worked out at 60.8% and the viability at 50 µM came out at 17.8%. Moreover, in data set [3], the viability at 10 µM was found to be 66.6% and the viability at 50 µM is 32.2%.
For `CCCCCCNC(=[Se])Nc1ccc(Cl)cc1` [Compound 5d], the melting point worked out at 110 °C. Further, the “ABTS radical scavenging activity compared with Trolox” value in data set [6] is listed as “significant lower radical scavenging activity than Trolox”. Also, in data set [1], the viability at 10 µM worked out at 81.3% and the viability at 50 µM amounted to 17.3%. Moreover, in data set [2], the viability at 10 µM stood at 81.4% and the viability at 50 µM was 57.2%. In data set [3], the viability at 10 µM was 69.1% and the viability at 50 µM was 42.5%.

What is called IC50 is the concentration that inhibits the measured activity by half. By viability is commonly meant the share of living cells, or the viability signal relative to a control. By melting point is commonly meant the temperature of the solid-liquid transition.
